Where a name gives a salt, the structure may show the parent alone.
How the values were obtained:
[1] = molecular target: benzodiazepine receptor; test: in vitro benzodiazepine receptor binding assay (tritiated diazepam displacement); settings: inhibition of specific binding of 2 nM tritiated diazepam, membranes from rat fore-brain, 0°-5°, 30 minutes, pH 7.5
Protocol: The benzodiazepine receptor binding properties indicative of the nervous system regulatory activity of said new compounds are determined in the receptor binding assay in vitro, e.g. as described in Nature 266, 732 (1977) or Proc. Nat. Acad. Sci. USA 74, 3805 (1977). Diazepam binds specifically and with high affinity to crude synaptosomal membrane preparations from rat fore-brain. This binding is inhibited by other anxiolytic compounds. When tritiated diazepem is used, the interaction of other drugs with said receptor can be readily assessed thus: membranes from rat fore-brain are incubated at 0°-5° for 30 minutes with 2 nM tritiated diazepam and various concentrations of the test substance in a buffer medium maintained at pH 7.5. Solutions of the various concentrations of test substances are prepared by dilution of a 4.2 mM stock solution in dimethylacetamide-ethanol (1:10) with 50 mM pH7.5. Tris-HCl buffer. The membranes, containing the receptors with various amounts of tritiated diazepam, are filtered onto glass fiber filters, which are then analyzed in a liquid scintillation counter. The concentration of the compounds of this invention, required to inhibit the specific binding of 2 nM of tritiated diazepam by 50%, i.e. the IC50, is determined graphically.

[2] = tested on: benzodiazepine receptor; test: in vivo benzodiazepine receptor binding (3H-flunitrazepam); settings: 30 mg/kg p.o. in the mouse
Protocol: In vivo benzodiazepine receptor binding is determined essentially as described in Eur. J. Pharmacol. 48, 213 (1978) and Nature 275, 551 (1978).
Test compounds in a corn starch vehicle are administered orally or intraperitioneally to mice or rats. Thirty minutes later, 3H-flunitrazepam(2 nmoles/Kg in saline) is injected into the tail vein, and the animals are sacrificed 20 minutes after injection of the flunitrazepam. The brains are then assayed by determining radioactivity in a liquid scintillation counter for binding of the radioligand to the receptors. A decrease in the binding of 3H-flunitrazepam in the drug-treated animals (as compared with the binding observed in animals treated with vehicle alone) is indicative of benzodiazepine receptor binding by the test compound.

Compound	IC50 [1]	inhibits flunitrazepam binding in vivo [2]
O=c1c2c[nH]c3ccncc3c-2nn1-c1ccc(Cl)cc1 [Example 2, 2-p-chlorophenyl-pyrazolo[4,3-c][1,6]naphthyridin-3(5H)-one]	~0.2 nM	–
O=c1c2c[nH]c3sccc3c-2nn1-c1ccc(Cl)cc1 [Example 9, 2-(4-chlorophenyl)-thieno[2,3-b]pyrazolo[3,4-d]pyridin-3(5H)-one hydrate]	~9 nM	–
O=c1c2c[nH]c3ccncc3c-2nn1-c1cccnc1 [Example 5a, 2-(3-pyridyl)pyrazolo[4,3-c][1,6]naphthyridin-3-(5H)-one hydrochloride]	~3 nM	–
O=c1c2c[nH]c3ccncc3c-2nn1-c1ccccc1 [Example 1, 2-phenyl-pyrazolo[4,3-c][1,6]naphthyridin-3(5H)-one]	–	about 75%

From patent US4560689A, “Heterocyclic-fused pyrazolo-[3,4-d]pyridin-3-ones as benzodiazepine receptor modulators” (Ciba-Geigy Corporation, priority 1984, dated 1985)
